According to ChEMBL document CHEMBL1201862, “PubChem BioAssay data set” (2004):
Activity calls are given as the source filed them.

Assays:
[1] = M. tuberculosis growth inhibition, HTS (AID 449762); format: functional
[2] = target: Sphingosine 1-phosphate receptor 2 (Homo sapiens, UniProt O95136); test: Dose Response Cell Based Assay for Agonists of the S1P2 Receptor. [Related pubchem assays: 729, 736, 843 ]; format: functional
Transthyretin = Transthyretin (Homo sapiens, UniProt P02766); test: Luminescence-based cell-based high throughput dose response assay to identify activators of Transthyretin (TTR) transcription.; format: functional
[3] = target: Lysine-specific demethylase 4C (Homo sapiens, UniProt Q9H3R0); test: inhibition of JMJD2C H3K9me3 demethylation – biochemical, DELFIA europium, cherry-picked samples, dose response (AID 488835); format: functional
Lysine-specific demethylase 4C, sequence (Q9H3R0 whole entry): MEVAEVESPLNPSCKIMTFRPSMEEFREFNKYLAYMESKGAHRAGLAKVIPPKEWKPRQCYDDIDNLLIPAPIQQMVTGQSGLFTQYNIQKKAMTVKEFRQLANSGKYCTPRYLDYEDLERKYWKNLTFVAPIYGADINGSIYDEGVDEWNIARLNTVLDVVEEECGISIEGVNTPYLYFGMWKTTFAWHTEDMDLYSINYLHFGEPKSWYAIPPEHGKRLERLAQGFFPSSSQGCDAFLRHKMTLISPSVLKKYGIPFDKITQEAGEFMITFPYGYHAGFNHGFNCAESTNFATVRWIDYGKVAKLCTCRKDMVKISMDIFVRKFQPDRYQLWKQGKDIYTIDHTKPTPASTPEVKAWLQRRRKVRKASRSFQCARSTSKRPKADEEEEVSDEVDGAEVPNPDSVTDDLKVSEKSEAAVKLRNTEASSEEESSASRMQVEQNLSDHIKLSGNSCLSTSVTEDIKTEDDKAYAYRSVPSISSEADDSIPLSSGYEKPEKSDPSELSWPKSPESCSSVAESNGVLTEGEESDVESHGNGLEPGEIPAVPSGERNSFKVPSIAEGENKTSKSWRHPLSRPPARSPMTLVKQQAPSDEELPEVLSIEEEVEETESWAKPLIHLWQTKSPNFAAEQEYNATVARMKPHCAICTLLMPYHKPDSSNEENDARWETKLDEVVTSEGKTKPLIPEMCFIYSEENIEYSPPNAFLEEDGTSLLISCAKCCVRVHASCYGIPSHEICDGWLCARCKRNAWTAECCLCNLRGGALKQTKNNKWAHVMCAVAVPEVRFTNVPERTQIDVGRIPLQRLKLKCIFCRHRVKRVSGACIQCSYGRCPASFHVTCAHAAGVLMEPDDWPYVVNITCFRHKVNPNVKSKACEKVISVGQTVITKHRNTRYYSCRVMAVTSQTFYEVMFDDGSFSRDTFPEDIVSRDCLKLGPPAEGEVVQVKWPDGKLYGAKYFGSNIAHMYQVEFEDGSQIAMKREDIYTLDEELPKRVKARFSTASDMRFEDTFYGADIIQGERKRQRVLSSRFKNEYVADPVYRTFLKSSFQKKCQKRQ

[4] = viability inhibitors of stage V gametocytes – luminescence, dose response (AID 1117278); format: functional, cell-based;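 further: gametocytes exposed to compound for 24 hours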
[5] = viability loss in human Jurkat cells – cell-based, luminescence, cytotoxicity control for P. falciparum gametocyte viability project, dose response (AID 1117277); format: functional;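 further: potency reflects loss of cellular ATP meaning fewer viable cells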
[6] = viability loss in Vero cells – cytotoxicity control for Vif-APOBEC3G degradation inhibitor project, dose response (AID 1117358); format: functional; conditions: Vero
Streptokinase A = target: T1, Streptokinase A (Streptococcus pyogenes serotype M1, UniProt P10520); test: viability-normalized secreted streptokinase activity reduction – plasminogen activation absorbance, OD405, dose response (AID 1914); format: functional, Streptococcus pyogenes M1 GAS;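 further: secreted streptokinase activity via plasminogen activation per viability signal from cell pellet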
T1 sequence (P10520 whole entry): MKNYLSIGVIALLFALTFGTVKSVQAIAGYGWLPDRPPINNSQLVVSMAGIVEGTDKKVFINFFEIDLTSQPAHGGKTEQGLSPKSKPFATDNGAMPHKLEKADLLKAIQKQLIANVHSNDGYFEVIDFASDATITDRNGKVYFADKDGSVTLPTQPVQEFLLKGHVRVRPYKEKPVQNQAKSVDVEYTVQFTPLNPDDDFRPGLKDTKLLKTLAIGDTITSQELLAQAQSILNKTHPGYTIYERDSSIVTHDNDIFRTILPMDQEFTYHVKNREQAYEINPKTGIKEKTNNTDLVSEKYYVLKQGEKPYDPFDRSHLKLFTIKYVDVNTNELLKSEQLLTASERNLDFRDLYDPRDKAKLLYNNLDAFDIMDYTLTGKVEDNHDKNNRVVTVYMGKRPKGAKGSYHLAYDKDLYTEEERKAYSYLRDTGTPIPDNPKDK

Streptococcus = test: GAS UMAA2166 growth inhibition – luminescence, BacTiterGlo, counter-screen for streptokinase expression inhibitor project, dose response (AID 1915); format: functional, organism-based;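 further: potency for reduction of bacterial viability or growth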
[7] = tested on: Streptococcus sp. 'group A'; test: Streptococcus pyogenes SK(-)GAS viability under kanamycin – luminescence, BacTiterGlo, confirmation, counter-screen for streptokinase expression inhibitor project, dose response (AID 1900); format: functional, organism-based
[8] = Late stage results for the probe development effort to identify inhibitors of Plasmodium falciparum gametocytes: Luminescence-based cell-based high throughput dose response assay to identify inhibitors of viability of late stage Plasmodium falciparum gametocytes.; format: functional
[9] = cytotoxicity toward Colo320 cells – cell-based, CellTiter-Glo luminescence, IC50, dose response (AID 1117334); format: functional; conditions: COLO 320
[10] = HCT116 cell viability decrease, GSK3B pretreatment – CellTiter-Glo, IC50, dose response (AID 1117339); format: functional; conditions: HCT-116
[11] = RKO cell viability reduction, dose response, CellTiter-Glo luminescence (AID 1117322); format: functional
[12] = CellTiter-Glo luminescence survival assay, SW480 colon tumor line, concentration-response curve, half-maximal inhibitory concentration (AID 1117338); format: functional
[13] = Reduced DLD-1 viability, concentration-response, CellTiter-Glo luminescence (AID 1117352); format: functional
[14] = SNU-C1 cell viability reduction, dose response, CellTiter-Glo luminescence (AID 1117323); format: functional, cell-based
[15] = cytotoxicity toward HCT116 cells – cell-based, CellTiter-Glo luminescence, IC50, dose response (AID 1117332); format: functional; conditions: HCT-116
[16] = cytotoxicity toward HT-29 cells – cell-based, CellTiter-Glo luminescence, IC50, dose response (AID 1117330); format: functional

Sphingosine 1-phosphate receptor 2, sequence (O95136 whole entry): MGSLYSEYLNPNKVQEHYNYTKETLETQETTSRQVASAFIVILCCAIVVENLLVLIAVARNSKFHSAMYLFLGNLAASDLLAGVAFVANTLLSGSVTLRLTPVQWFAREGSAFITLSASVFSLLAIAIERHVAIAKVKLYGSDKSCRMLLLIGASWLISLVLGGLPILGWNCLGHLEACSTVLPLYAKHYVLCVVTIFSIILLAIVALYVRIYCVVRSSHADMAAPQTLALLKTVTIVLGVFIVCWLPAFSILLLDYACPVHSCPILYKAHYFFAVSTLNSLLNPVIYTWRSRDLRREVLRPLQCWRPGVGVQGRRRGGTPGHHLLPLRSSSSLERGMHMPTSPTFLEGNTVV

CC(=O)N1C(Nc2ccc(Cl)cc2)CCN1c1ccccc1 (centres undefined)
IC50 [1]: > 100 µM (active)

NC(=O)c1ccc(NC(=O)C2CCCO2)cc1 (centres undefined)
EC50 [2]: > 50 µM (not active)

Cc1ccc(C2CC(c3ccccc3)=NN2C(S)=Nc2ccccc2)o1 (centres undefined)
EC50 (Transthyretin): > 167 µM (inactive)
AC50 [3]: 20.5 µM (active)

CC(C)OC(=O)c1c(NC(=O)c2ccco2)sc2c1CCCC2
IC50 [4]: > 109 µM (inactive)
IC50 [5]: > 83.2 µM (inactive)

O=C(Nc1cccc(Cl)c1)C1=Cc2cc(Cl)ccc2OC1
CC50 [6]: > 40 µM (active)

O=C(NC1=NCCS1)c1cc(-c2ccccc2)nn1-c1ccccc1
EC50 (Streptokinase A): 34.2 µM (active)
EC50 (Streptococcus): > 150 µM (not active)
EC50 [7]: > 150 µM (not active)
IC50 [8]: > 37.2 µM (inactive)

C=CCCCCCCCCC(=O)OC
IC50 [9]: > 20 µM (inactive)
IC50 [10]: > 20 µM (inactive)
IC50 [11]: > 20 µM (inactive)
IC50 [12]: > 20 µM (inactive)
IC50 [13]: > 20 µM (inactive)
IC50 [14]: > 20 µM (inactive)
IC50 [15]: > 20 µM (inactive)
IC50 [16]: > 20 µM (inactive)
